Earlier results, collected in patent publication US7959936B2, “Emulsifications-stable pesticidal composition” (Syngenta Crop Protection, Inc., priority 2003, dated 2011).
Read-outs that look alike come from different tables or passages of the source.

What was measured:
Rabbit [1] = test system: Rabbit
Rabbit [2] = test system: Rabbit; remark: listed apart in the source
Rabbit [3] = test system: Rabbit; remark: listed apart in the source
Rabbit [4] = conditions: no unit printed for this line
[5] = 25° C

2-(thiazol-4-ine)benzimidazole [Thiabendazole]
Acute oral toxicity LD50 (mg/kg) (Quail): <2,250 mg/kg | Acute oral toxicity (LD50: mg/kg) (Rat): 3,100 mg/kg | Acute oral toxicity (LD50: mg/kg) (Mouse): 3,600 mg/kg | Solubility, 1,2-dichloroethane (20° C.): 810 µg/mL | Solubility, Acetone (20° C.): 2430 µg/mL | Solubility, Ethyl acetate (20° C.): 1490 µg/mL | Solubility, Methanol (20° C.): 8280 µg/mL | Solubility, Xylene (20° C.): 130 µg/mL | Solubility, n-Hexane (20° C.): <10 µg/mL | Solubility, n-Octanol (20° C.): 3910 µg/mL | Solubility, Water (20° C., pH4): 160 µg/mL | Solubility, Water (20° C., pH7): 30 µg/mL | solubility in short-chain alcohols (such as methyl alcohol): comparatively satisfactory solubility | solubility in water (water): practically insoluble | solubility in typical industrial solvents (xylene and petroleum-based solvents): only slightly soluble | Antigenicity (Guinea pig): None | Irritability Mucous membrane (Rabbit [1]): Non-irritating | Acute oral toxicity LD50 (mg/kg) (Mallard duck): 5,620 mg/kg | Irritability Skin (Rabbit [2]): Non-irritating | TLm (96 hrs) (Bluegill): 19 mg/L | Acute oral toxicity (LD50: mg/kg) (Rabbit [3]): 3,800 mg/kg | TLm (96 hrs) (Rainbow trout): 0.5 mg/L | Acute percutaneous toxicity (Rabbit [4]): <2,000 | Vapor pressure [5]: Vapor pressure: 4.6 × 10^−4 mPa (25° C)
